Measurements reported in patent US8361929B2, “Method of restoring male sterility in gramineous plants and male sterility restorative agent” (Tohoku University, priority 2009, dated 2013).
“Also recorded” adds a separate entry of the source.

What was measured:
Assay type in all cases: in vivo
[1] = system: barley (Hordeum vulagare L. cv Haruna-nijo); assay: Anther length at heading stage after spreading auxin aqueous solutions; conditions: control groups (suitable temperature cultivation); 10^−6 M, 10^−5 M or 10^−4 M
Description: (§1) In an experiment to verify the effect of an auxin, the above-described nursery soil for horticultural was used. In addition, to facilitate the control of an auxin aqueous solution treatment, each pair of two rectangular planter boxes (60 mm×60 mm×100 mm (length×width×height), AGC TECHNO GLASS CO., LTD., Plant Box (Model No. CUL-JAR300)) were vertically stacked on each other. A hole having a diameter of about 1 cm was formed at the bottom center of the upper box. A 6-cm wick for an alcohol lamp with a knot was passed through the hole. Then, 300 ml of vermiculite (NITTAI Co., Ltd., vermiculite for agricultural and horticultural use) was packed thereabove. In the lower box, 0.2% (v/v) of HYPONEX (HYPONeX JAPAN CORP., LTD.) was placed as a nutrient water source for plants. Seeds of Hordeum vulagare L. cv Haruna-nijo having been stored in the dark at 4° C. were stimulated to germinate in the dark at 25° C. for 48 hours. The germinated seeds were sown at four seeds per pot at the four corners of the upper container. These sown seeds were grown in an artificial climate chamber (Nippon Medical & Chemical Instruments Co., Ltd., BIOTRON LH300RDS) under conditions of 20° C. during the day, 15° C. at night, and a 16-hour photoperiod. As the light source, 20 plant growing fluorescent tubes were used (16 tubes; National FL40S FR-P, and 4 tubes; National, FL20S FR-P).
(§2) Also in this cultivation method, the fifth leaves emerge and start to develop on Day 18 or 19 after the sowing as in the case where the culture soil was used, where the day of the sowing is regarded as Day 0. The plants were cultivated under high-temperature conditions of 30° C. during the day, 25° C. at night, and a 16-hour photoperiod from Day 19 after the sowing. Thus, a high-temperature treatment was conducted for five days (120 hours). Thereafter (on Day 24 after the sowing), the conditions were changed back to the normal conditions of 20° C. during the day, 15° C. at night, and a 16-hour photoperiod. […]

[2] = system: barley (Hordeum vulagare L. cv Haruna-nijo); assay: Pollen maturity, potassium iodide staining of anthers; conditions: control groups (suitable temperature cultivation); 10^−6 M, 10^−5 M or 10^−4 M
Description: as §1, §2

[3] = system: barley (Hordeum vulagare L. cv Haruna-nijo); assay: Side effects of spread auxin on the plants (leaf withering)
Description: as §1
Also in this cultivation method, the fifth leaves emerge and start to develop on Day 18 or 19 after the sowing as in the case where the culture soil was used, where the day of the sowing is regarded as Day 0. The plants were cultivated under high-temperature conditions of 30° C. during the day, 25° C. at night, and a 16-hour photoperiod from Day 19 after the sowing. Thus, a high-temperature treatment was conducted for five days (120 hours). Thereafter (on Day 24 after the sowing), the conditions were changed back to the normal conditions of 20° C. during the day, 15° C. at night, and a 16-hour photoperiod.
First, 10^−3 M, 10^−2 M, and 10^−1 M stock solutions in dimethyl sulfoxide (DMSO: Wako Pure Chemical Industries, Ltd., Production Code: 043-07216) were prepared by using each of indole-3-acetic acid (IAA: Wako Pure Chemical Industries, Ltd., Production Code: 94-00183), 1-naphthyl acetic acid (NAA: Wako Pure Chemical Industries, Ltd., Production Code: 148-00092), and 2,4-dichlorophenoxyacetic acid (2,4-D: Wako Pure Chemical Industries, Ltd., Production Code: 040-18532). The stock solutions were stored in the dark at −20° C. until used. These stock solutions were thawed immediately before spread, and each were diluted 1000-fold with distilled water. Thus, solutions were prepared at three levels of 10^−6 M, 10^−5 M, and 10^−4 M, and used as auxin aqueous solutions. […]

[4] = system: barley (Hordeum vulagare L. cv Haruna-nijo); assay: Seed fertility (seeds produced in panicles) after auxin spreading; conditions: for seeds produced in panicles: high-temperature treated groups, 10^−4 M
Description: as §1, §2

[5] = high-temperature treated samples, 10^−4 M

Row | Structure (SMILES) | change of anther length at heading stage [1] | pollen formation [2] | negative effect on the plants (leaves) ([3]; control groups (suitable temperature cultivation), 10^−4 M) | negative effect / side effects on the plants [3, 5] | seeds produced in panicles [4] [%] | negative effect / side effects on the plants ([3]; in vivo) | seed fertility restoration (FIG. 10) ([4]; individual of high-temperature treated group, spread at 10^−4 M)
1 | O=C(O)COc1ccc(Cl)cc1Cl [2,4-D, 2,4-dichlorophenoxyacetic acid] | change was hardly observed | formed normally | leaves stared to wither at an early stage | leaves started to wither at an early stage; also recorded: withering up at the early stage | – | – | –
2 | O=C(O)Cc1c[nH]c2ccccc12 [IAA, indole-3-acetic acid] | change was hardly observed | formed normally | – | – | ~90 | side effects were hardly observed | –
3 | O=C(O)Cc1cccc2ccccc12 [NAA, 1-naphthyl acetic acid] | change was hardly observed | formed normally | – | side effects were hardly observed | ~90 | – | seed fertility restoration
